Assay results as given in the NIST ThermoML archive (doi:10.1016/j.fluid.2013.01.002).
Numbers after ± are expanded uncertainties.

Legend:
[1] = 298.15 K; 101.33 kPa; Liquid; Vibrating tube method
[2] = refractive index (Na D-line) (dimensionless); details: 298.15 K; 101.33 kPa; Liquid; Standard Abbe refractometry
[3] = xn = mol fraction of the nth substance listed; details: 298.15 K, 101 kPa, Liquid, Vibrating tube method
[4] = refractive index (Na D-line) (dimensionless); xn = mol fraction of the nth substance listed; details: 298.15 K, 101 kPa, Liquid, Standard Abbe refractometry

CCCCCCCCCCCCO [dodecan-1-ol]
Details	mass density [kg/m3]	refractive index
[1]	830.37 ± 0.1	–
[2]	–	1.4407 ± 0.0004

CCCCCCCCCCCC [dodecane]
Details	mass density [kg/m3]	refractive index
[1]	745.52 ± 0.13	–
[2]	–	1.4195 ± 0.0004

CCCCCCCCN(CCCCCCCC)CCCCCCCC [trioctylamine]
Details	mass density [kg/m3]	refractive index
[1]	807.9 ± 0.11	–
[2]	–	1.4476 ± 0.0004

CCCCCCCCN(CCCCCCCC)CCCCCCCC [trioctylamine] + CCCCCCCCCCC
Details	mass density, [3] [kg/m3]	refractive index, [4]
x1 = 0.05	743.91 ± 0.14	1.4176 ± 0.0004
x1 = 0.1	750.33 ± 0.13	1.4199 ± 0.0004
x1 = 0.2017	761.55 ± 0.13	1.4243 ± 0.0004
x1 = 0.3001	770.56 ± 0.12	1.4285 ± 0.0004
x1 = 0.4002	778.34 ± 0.12	1.4319 ± 0.0004
x1 = 0.4997	785.01 ± 0.12	1.4351 ± 0.0004
x1 = 0.6003	790.89 ± 0.12	1.438 ± 0.0004
x1 = 0.6989	795.96 ± 0.11	1.4407 ± 0.0004
x1 = 0.7996	800.52 ± 0.11	1.4434 ± 0.0004
x1 = 0.9003	804.51 ± 0.11	1.4455 ± 0.0004
x1 = 0.9497	806.25 ± 0.11	1.4466 ± 0.0004

CCCCCCCCN(CCCCCCCC)CCCCCCCC [trioctylamine] + CCCCCCCCCCCC
Details	mass density, [3] [kg/m3]	refractive index, [4]
x1 = 0.0501	751.32 ± 0.13	1.4222 ± 0.0004
x1 = 0.1	756.64 ± 0.13	1.4249 ± 0.0004
x1 = 0.1998	765.98 ± 0.13	1.4287 ± 0.0004
x1 = 0.3	773.95 ± 0.12	1.4323 ± 0.0004
x1 = 0.4	780.79 ± 0.12	1.4354 ± 0.0004
x1 = 0.5001	786.75 ± 0.12	1.4381 ± 0.0004
x1 = 0.6023	792.12 ± 0.12	1.4403 ± 0.0004
x1 = 0.7001	796.7 ± 0.11	1.4426 ± 0.0004
x1 = 0.8025	801 ± 0.11	1.4444 ± 0.0004
x1 = 0.9002	804.65 ± 0.11	1.4461 ± 0.0004
x1 = 0.9499	806.35 ± 0.11	1.4468 ± 0.0004

CCCCCCCCN(CCCCCCCC)CCCCCCCC [trioctylamine] + CCCCCCCCCCCCO
Details	mass density, [3] [kg/m3]	refractive index, [4]
x1 = 0.0498	828.8 ± 0.1	1.4416 ± 0.0004
x1 = 0.1011	827.31 ± 0.1	1.4424 ± 0.0004
x1 = 0.2014	824.49 ± 0.1	1.4437 ± 0.0004
x1 = 0.3012	821.97 ± 0.1	1.4447 ± 0.0004
x1 = 0.4001	819.63 ± 0.1	1.4455 ± 0.0004
x1 = 0.5	817.37 ± 0.11	1.4461 ± 0.0004
x1 = 0.6005	815.19 ± 0.11	1.4465 ± 0.0004
x1 = 0.6995	813.14 ± 0.11	1.4469 ± 0.0004
x1 = 0.799	811.21 ± 0.11	1.4473 ± 0.0004
x1 = 0.8999	809.43 ± 0.11	1.4475 ± 0.0004
x1 = 0.9504	808.63 ± 0.11	1.4476 ± 0.0004

CCCCCCCCCCC [undecane]
Details	mass density [kg/m3]	refractive index
[1]	736.73 ± 0.14	–
[2]	–	1.415 ± 0.0004
